Experimental data as given in patent US20030187048A1, “Method for inhibiting skin lesion formation using histamine as the active ingredient” (priority 1991, published 2003).
Like-named read-outs stand apart in the source and are kept apart here.

Key:
[1] = system: aphthous ulcers (canker sores); conditions: 0.0067% IEP gel; aphthous stomatitis
Method: (§1) The composition of the present invention includes initial preparation of a gel base by adding 0.8% CARBOPOL 940, which is a vinyl polymer, to distilled water. This mixture was allowed to stand for several hours until the polymer was wetted and a gel was formed. This mixture then was blended by means of a ordinary high speed mixer, such as a Lightning Labmaster II until a homogenous mixture is formed. At this point, a neutralizing and emulsifying agent such as an amino alcohol was added, forming an emulsion. […] This composition then was applied topically to various types of lesions, as subsequently described. […] Propylparaben or methylparaben may be used as a preservative. For “unidose” dispensers containing only two to three drops, no preservatives are used, as it is known that preservatives in ophthalmic solutions frequently cause undesirable side effects. The term semi-synthetic water soluble polymer as used herein includes hydroxy methylcellulose or carboxy methylcellulose. Carbopol is widely available in different viscosities.

[2] = system: herpetic stomatitis lesions (fever blisters or cold sores)
Method: as §1

[3] = system: cold sore (herpes labialis) lesions
[4] = 0.0067% IEP gel, herpes labialis

NCCc1c[nH]cn1 [IEP, 1H-imidazole-4-ethanamine,phosphate]
Burning, reduction after 1 app. [1]: 20%
Burning, reduction after 1 day [1]: 40%
Estimated number of applications needed to eliminate clinical symptoms [1]: 9
Pain, reduction after 1 app. [1]: 73%
Pain, reduction after 1 day [1]: 80%
Percentage decrease in healing time compared to untreated episode [1]: 67%
Percentage of patients who experienced lesion abortion [1]: 67%
Size, reduction after 1 app. [1]: 23%
Size, reduction after 1 day [1]: 43%
Swelling, reduction after 1 app. [1]: 20%
Swelling, reduction after 1 day [1]: 50%
Burning, reduction after 1 app. [2, 4]: 63%
Burning, reduction after 1 day [2, 4]: 92%
Estimated number of applications needed to eliminate clinical symptoms [2, 4]: 5
Itching, reduction after 1 app. [2, 4]: %60
Itching, reduction after 1 day [2, 4]: 97%
Pain, reduction after 1 app. [2, 4]: 58%
Pain, reduction after 1 day [2, 4]: 87%
Percentage decrease in healing time compared to untreated episode [2, 4]: 49%
Percentage of patients who experienced lesion abortion [2, 4]: 60%
Size, reduction after 1 app. [2, 4]: 10%
Size, reduction after 1 day [2, 4]: 32%
Spreading, reduction after 1 app. [2, 4]: 40%
Spreading, reduction after 1 day [2, 4]: 62%
Swelling, reduction after 1 app. [2, 4]: %27
Swelling, reduction after 1 day [2, 4]: 72%
Fraction of total patients who experienced the abortion of lesions ([2]; 0.0067% gel applied at first sensation, both treatment groups (herpes labialis and aphthous ulcers)): Approximately two-thirds
Mean percentage decay rate of lesions, Conc. Mean ([3]; 0.00083% gel, 4 patients): 23.1%
Average % reduction in lesions from original size ([3]; 0.00083% gel, 48 Hours): 14.0%
Average % reduction in lesions from original size ([3]; 0.00083% gel, 72 Hours): 27.6%
Average % reduction in lesions from original size ([3]; 0.00083% gel, 96 Hours): 44.3%
Burning, average percent reduction of original symptom ([3]; 0.00083% gel, Day 1): 20.9%
Itching, average percent reduction of original symptom ([3]; 0.00083% gel, Day 1): 41.7%
Pain, average percent reduction of original symptom ([3]; 0.00083% gel, Day 1): 34.2%
Spreading, average percent reduction of original symptom ([3]; 0.00083% gel, Day 1): 0%
Swelling, average percent reduction of original symptom ([3]; 0.00083% gel, Day 1): 10.4%
Burning, average percent reduction of original symptom ([3]; 0.00083% gel, Day 2): 66.7%
Itching, average percent reduction of original symptom ([3]; 0.00083% gel, Day 2): 47.8%
Pain, average percent reduction of original symptom ([3]; 0.00083% gel, Day 2): 51.7%
Spreading, average percent reduction of original symptom ([3]; 0.00083% gel, Day 2): 0%
Swelling, average percent reduction of original symptom ([3]; 0.00083% gel, Day 2): 37.5%
Burning, average percent reduction of original symptom ([3]; 0.00083% gel, Day 3): 58.3%
Itching, average percent reduction of original symptom ([3]; 0.00083% gel, Day 3): 16.7%
Pain, average percent reduction of original symptom ([3]; 0.00083% gel, Day 3): 51.7%
Spreading, average percent reduction of original symptom ([3]; 0.00083% gel, Day 3): 11.1%
Burning, average percent reduction of original symptom ([3]; 0.00083% gel, Day 4): 75.0%
Itching, average percent reduction of original symptom ([3]; 0.00083% gel, Day 4): 11.1%
Pain, average percent reduction of original symptom ([3]; 0.00083% gel, Day 4): 65.0%
Spreading, average percent reduction of original symptom ([3]; 0.00083% gel, Day 4): 22.2%
Swelling, average percent reduction of original symptom ([3]; 0.00083% gel, Day 4): 75.0%
Burning, average percent reduction of original symptom ([3]; 0.00083% gel, Day 5): 77.8%
Itching, average percent reduction of original symptom ([3]; 0.00083% gel, Day 5): 41.7%
Pain, average percent reduction of original symptom ([3]; 0.00083% gel, Day 5): 64.4%
Spreading, average percent reduction of original symptom ([3]; 0.00083% gel, Day 5): 50.0%
Swelling, average percent reduction of original symptom ([3]; 0.00083% gel, Day 5): 55.6%
Burning, average percent reduction of original symptom ([3]; 0.00083% gel, Day 6): 66.7%
Itching, average percent reduction of original symptom ([3]; 0.00083% gel, Day 6): 75.0%
Pain, average percent reduction of original symptom ([3]; 0.00083% gel, Day 6): 66.7%
Spreading, average percent reduction of original symptom ([3]; 0.00083% gel, Day 6): 66.7%
Swelling, average percent reduction of original symptom ([3]; 0.00083% gel, Day 6): 0%
Mean percentage decay rate of lesions, Conc. Mean ([3]; 0.0033% gel, 5 patients): 24.1%
Average % reduction in lesions from original size ([3]; 0.0033% gel, 24 Hours): 11.8%
Average % reduction in lesions from original size ([3]; 0.0033% gel, 48 Hours): 44.6%
Average % reduction in lesions from original size ([3]; 0.0033% gel, 72 Hours): 57.8%
Average % reduction in lesions from original size ([3]; 0.0033% gel, 96 Hours): 61.6%
Burning, average percent reduction of original symptom ([3]; 0.0033% gel, Day 1): 21.7%
Itching, average percent reduction of original symptom ([3]; 0.0033% gel, Day 1): 23.4%
Spreading, average percent reduction of original symptom ([3]; 0.0033% gel, Day 1): 50.0%
Burning, average percent reduction of original symptom ([3]; 0.0033% gel, Day 2): 37.5%
Itching, average percent reduction of original symptom ([3]; 0.0033% gel, Day 2): 55.0%
Spreading, average percent reduction of original symptom ([3]; 0.0033% gel, Day 2): 50.0%
Swelling, average percent reduction of original symptom ([3]; 0.0033% gel, Day 2): 45.4%
Burning, average percent reduction of original symptom ([3]; 0.0033% gel, Day 3): 62.5%
Itching, average percent reduction of original symptom ([3]; 0.0033% gel, Day 3): 58.5%
Pain, average percent reduction of original symptom ([3]; 0.0033% gel, Day 3): 33.3%
Spreading, average percent reduction of original symptom ([3]; 0.0033% gel, Day 3): 16.7%
Swelling, average percent reduction of original symptom ([3]; 0.0033% gel, Day 3): 55.8%
Burning, average percent reduction of original symptom ([3]; 0.0033% gel, Day 4): 68.8%
Itching, average percent reduction of original symptom ([3]; 0.0033% gel, Day 4): 75.0%
Pain, average percent reduction of original symptom ([3]; 0.0033% gel, Day 4): 66.8%
Spreading, average percent reduction of original symptom ([3]; 0.0033% gel, Day 4): 100%
Swelling, average percent reduction of original symptom ([3]; 0.0033% gel, Day 4): 55.9%
Burning, average percent reduction of original symptom ([3]; 0.0033% gel, Day 5): 100%
Itching, average percent reduction of original symptom ([3]; 0.0033% gel, Day 5): 82.5%
Pain, average percent reduction of original symptom ([3]; 0.0033% gel, Day 5): 66.7%
Spreading, average percent reduction of original symptom ([3]; 0.0033% gel, Day 5): 100%
Swelling, average percent reduction of original symptom ([3]; 0.0033% gel, Day 5): 65.0%
Burning, average percent reduction of original symptom ([3]; 0.0033% gel, Day 6): 87.5%
Itching, average percent reduction of original symptom ([3]; 0.0033% gel, Day 6): 100%
Pain, average percent reduction of original symptom ([3]; 0.0033% gel, Day 6): 83.4%
Swelling, average percent reduction of original symptom ([3]; 0.0033% gel, Day 6): 66.7%
Mean percentage decay rate of lesions, Conc. Mean ([3]; 0.0067% gel, 4 patients): 54.4%
Average % reduction in lesions from original size ([3]; 0.0067% gel, 24 Hours): 37.5%
Average % reduction in lesions from original size ([3]; 0.0067% gel, 48 Hours): 67.0%
Average % reduction in lesions from original size ([3]; 0.0067% gel, 72 Hours): 86.2%
Average % reduction in lesions from original size ([3]; 0.0067% gel, 96 Hours): 98.9%
Burning, average percent reduction of original symptom ([3]; 0.0067% gel, Day 1): 50.0%
Itching, average percent reduction of original symptom ([3]; 0.0067% gel, Day 1): 50.0%
Pain, average percent reduction of original symptom ([3]; 0.0067% gel, Day 1): 66.7%
Spreading, average percent reduction of original symptom ([3]; 0.0067% gel, Day 1): 66.7%
Swelling, average percent reduction of original symptom ([3]; 0.0067% gel, Day 1): 50.0%
Burning, average percent reduction of original symptom ([3]; 0.0067% gel, Day 2): 100%
Itching, average percent reduction of original symptom ([3]; 0.0067% gel, Day 2): 100%
Pain, average percent reduction of original symptom ([3]; 0.0067% gel, Day 2): 83.4%
Spreading, average percent reduction of original symptom ([3]; 0.0067% gel, Day 2): 100%
Swelling, average percent reduction of original symptom ([3]; 0.0067% gel, Day 2): 83.3%
Burning, average percent reduction of original symptom ([3]; 0.0067% gel, Day 3): 100%
Itching, average percent reduction of original symptom ([3]; 0.0067% gel, Day 3): 100%
Pain, average percent reduction of original symptom ([3]; 0.0067% gel, Day 3): 55.6%
Spreading, average percent reduction of original symptom ([3]; 0.0067% gel, Day 3): 100%
Swelling, average percent reduction of original symptom ([3]; 0.0067% gel, Day 3): 54.2%
Burning, average percent reduction of original symptom ([3]; 0.0067% gel, Day 4): 100%
Itching, average percent reduction of original symptom ([3]; 0.0067% gel, Day 4): 75.0%
Pain, average percent reduction of original symptom ([3]; 0.0067% gel, Day 4): 55.6%
Spreading, average percent reduction of original symptom ([3]; 0.0067% gel, Day 4): 100%
Swelling, average percent reduction of original symptom ([3]; 0.0067% gel, Day 4): 61.7%
Burning, average percent reduction of original symptom ([3]; 0.0067% gel, Day 5): 100%
Itching, average percent reduction of original symptom ([3]; 0.0067% gel, Day 5): 100%
Pain, average percent reduction of original symptom ([3]; 0.0067% gel, Day 5): 100%
Spreading, average percent reduction of original symptom ([3]; 0.0067% gel, Day 5): 100%
Swelling, average percent reduction of original symptom ([3]; 0.0067% gel, Day 5): 66.7%
Spreading, average percent reduction of original symptom ([3]; 0.0067% gel, Day 6): 100%
Swelling, average percent reduction of original symptom ([3]; 0.0067% gel, Day 6): 100%
Reducing lesion size over time vs placebo (analysis of variance) ([3]; 0.0067% treatment vs placebo, p<0.05): significantly more effective
Untoward reactions ([3]; in vivo): no untoward reactions
